Source: patent publication US6806266B1 (priority 1999, dated 2004)
Read-outs that look alike come from different tables or passages of the source.

What was measured:
[1] = tested on: human epidermal cancer cell line A431; assay type: cell-based; conditions: A431 cells
Description: After the removal of the culture supernatant, the cells were washed with PBS(−), detached in an aqueous solution of 0.25% of Trypsin (GIBCO BRL) and 0.02% of ethylenediaminetetraacetic acid (Wako Pure Chemical Industries, Ltd.), then fixed at a density of 10^6 cells/mL with a 70% aqueous solution of ethanol and stored in a cold room at 4° C. Ethanol was removed by centrifugation from the fixed cells, and then the fixed cells were washed with PBS(−). The cells were treated at 37° C. for 30 minutes with a 0.25 mg/mL PBS(−)solution of ribonuclease A type 1-A (Sigma) containing 0.1% of Nonidet P-40 (Nacalai Tesque, Inc.), and then a solution of propidiumiodide (Sigma) in 0.1% NP-40/PBS(−) was added into the cells at a final concentration of 50 μg/mL, and the cells were stained in ice for at least 20 minutes.
A DNA histogram was taken by EPICS ELITE Flow Cytometer, and the cell cycle distribution was analyzed by use of MultiCycle Program.
In the method shown in Test Example 3, the G2 stage and the M stage of the cell cycle can not be distinguished from each other, and thus the distrubution of the G2 stage combined with that of the M stage (G2 stage+M stage) is expressed in percentage.

[2] = tested on: human lung cancer cell line A-549; assay: Test for inhibitory activity on cell growth in human lung cancer cell line A-549; conditions: A549, 72 h, read-out: Inhibitory activity on cell growth (IC50/μmol/L)
human AGP (hα1AGP) = assay type: binding; conditions: equimolar solution (20 μmol/L) of test compound and human AGP, PBS pH=7.4, 37° C., two hours after mixing with DCC; HPLC peak area ratio
Description: A solution of the test compound in DMSO was added to an isotonic phosphate buffer (PBS, pH=7.4) containing human AGP, to prepare an equimolar solution (20 μmol/L) of the test compound and human AGP. The solution was pre-incubated at 37° C. for 15 minutes and then mixed with an equal volume of 4 mg/mL of DCC in PBS, and incubation was further continued. After two hours from mixing, a part of the solution was sampled and centrifuged (4° C., 20000×g, 2 minutes) to precipitate the charcoal, and the supernatant was subjected to HPLC analysis. Separately, an equimolar solution (20 μmol/L) of the test compound and human AGP was mixed with an equal volume of PBS (pH=7.4), and then the mixed solution was subjected as a DCC-untreated sample to HPLC analysis. The ratio of the peak area of the DCC-treated sample to the average peak area of the DCC-untreated sample (the solution mixed with PBS) was calculated as the degree of binding (%).

[3] = Cisplatin 20 μmol/L + test compound 50 nmol/L, 8 hours

| SMILES | Cell cycle distribution (%) G1 stage ([1]; Cisplatin 20 μmol/L alone) | Cell cycle distribution (%) G2 stage + M stage ([1]; Cisplatin 20 μmol/L alone) | Cell cycle distribution (%) S stage ([1]; Cisplatin 20 μmol/L alone) | accumulation action at the G2 stage or S stage (cell cycle distribution versus untreated group) ([1]; only Cisplatin (20 μmol/L)) | IC50 [2] | Degree of binding to hα1AGP (%) (human AGP (hα1AGP)) | Cell cycle distribution (%) G1 stage [1, 3] | Cell cycle distribution (%) G2 stage + M stage [1, 3] | Cell cycle distribution (%) S stage [1, 3] | abrogation of accumulation action at the G2 stage and S stage ([1]; in combination with Cisplatin (20 μmol/L)) |
| --- | --- | --- | --- | --- | --- | --- | --- | --- | --- | --- |
| N.N.[Cl][Pt][Cl] [Cisplatin] | 5.5% | 17.5% | 77.0% | An increase in the S stage, an increase in (G2 stage+M stage) and a decrease in the G1 stage | – | – | – | – | – | – |
| CN[C@@H]1C[C@H]2O[C@@](C)([C@@H]1OC)n1c3ccccc3c3c4c(c5c6ccccc6n2c5c31)C(=O)N[C@@H]4O [UCN-01] | – | – | – | – | 0.018 µmol/L | 76.8% | 31.9% | 27.6% | 40.5% | a decrease in the S stage and an increase in the G1 stage |
